For eight molecules, TGI results are on record in PubChem BioAssay (NCI).

Molecules are shown by their SMILES.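 The compound was tested at five concentrations on cells cultured in 96-well plates, with a 48-hour exposure period. At the TGI there is no net growth.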

Among the test systems are SK-MEL-2 melanoma; SW-620 colon; NCI-H460 lung; RXF 393 renal; SR leukemia; M14 melanoma; OVCAR-4 ovarian; UO-31 renal; OVCAR-5 ovarian; A498 renal; EKVX NSCLC; K-562 leukemia; 786-0 renal; SF-295 CNS; A549 NSCLC; KM12 colon; UACC-257 melanoma; HOP-62 NSCLC; SK-MEL-28 melanoma; BT-549 breast.
Assay in all cases: growth of human tumour cells (NCI), 48 h

Take `C1CCCN(NC2=NCCO2)CC1`: the TGI in the assay on SK-MEL-2 melanoma, in the assay with SW-620 colon, in the assay on NCI-H460 lung, in the assay on RXF 393 renal, with SR leukemia and in the assay with M14 melanoma was greater than 100 µM each time. For the same molecule, the TGI in the assay on OVCAR-4 ovarian, with UO-31 renal, with OVCAR-5 ovarian, in the assay on A498 renal, in the assay on EKVX NSCLC and in the assay on K-562 leukemia was greater than 100 µM throughout. Further, the TGI in the assay with 786-0 renal, in the assay on SF-295 CNS, with A549 NSCLC, in the assay with KM12 colon, in the assay with UACC-257 melanoma and with HOP-62 NSCLC was greater than 100 µM throughout.

For `COC(=O)C(=O)C(C(=O)C(=O)Nc1ccc(C)cc1C)c1nc2ccc(Cl)cc2[nH]c1=O` (stereo not given), the TGI in the assay with SK-MEL-2 melanoma, with SW-620 colon, with SK-MEL-28 melanoma, with NCI-H460 lung, in the assay on RXF 393 renal and in the assay with M14 melanoma was greater than 100 µM each time. Further, the TGI in the assay on OVCAR-4 ovarian, with UO-31 renal, in the assay on OVCAR-5 ovarian, in the assay with EKVX NSCLC, in the assay on 786-0 renal and with SF-295 CNS was greater than 100 µM in each case. Further, the TGI in the assay with A549 NSCLC, with KM12 colon, with UACC-257 melanoma, in the assay with BT-549 breast and with HOP-62 NSCLC was greater than 100 µM in each case.

Turning to `CCOC(=O)C1=C(OC(OCC)C(CC)[Se]c2ccccc2)CCC1` (stereo not given), the TGI is greater than 100 µM in the assay with SK-MEL-2 melanoma; 92.8 µM in the assay with SK-MEL-28 melanoma; greater than 100 µM in the assay on NCI-H460 lung; 37.7 µM in the assay with RXF 393 renal; 83.4 µM with SR leukemia; 31.6 µM with M14 melanoma. Moreover, the TGI was 28 µM in the assay on OVCAR-4 ovarian; 96.2 µM with UO-31 renal; 69.6 µM in the assay with OVCAR-5 ovarian; greater than 100 µM with A498 renal; 91.2 µM in the assay on EKVX NSCLC; greater than 100 µM with K-562 leukemia. The TGI with 786-0 renal is 30.5 µM; in the assay with SF-295 CNS, 65.5 µM; in the assay with A549 NSCLC, greater than 100 µM; in the assay on KM12 colon, greater than 100 µM; in the assay on UACC-257 melanoma, 77.4 µM; in the assay on HOP-62 NSCLC, greater than 100 µM.

Take `COC(=O)c1ccc2c(c1)CC1(C2)Cc2ccccc2C1=O` (stereo not given): the TGI in the assay with SK-MEL-2 melanoma is 69.8 µM; with SW-620 colon, greater than 100 µM; with SK-MEL-28 melanoma it was 38.7 µM; in the assay on NCI-H460 lung it was greater than 100 µM; with RXF 393 renal, greater than 100 µM; in the assay on SR leukemia, 65.7 µM. The TGI in the assay on M14 melanoma was 38.6 µM; in the assay with OVCAR-4 ovarian, greater than 100 µM; in the assay on UO-31 renal, greater than 100 µM; in the assay on OVCAR-5 ovarian, greater than 100 µM; in the assay with A498 renal it was greater than 100 µM; with EKVX NSCLC, 88.1 µM. Further, the TGI was greater than 100 µM with K-562 leukemia; greater than 100 µM with 786-0 renal; greater than 100 µM with SF-295 CNS; greater than 100 µM in the assay on A549 NSCLC; 35.2 µM in the assay on UACC-257 melanoma; greater than 100 µM with HOP-62 NSCLC.

`C1CSCC2(COC2)CSCCSCC2(COC2)CS1`: the TGI in the assay with SW-620 colon, in the assay with SK-MEL-28 melanoma, with NCI-H460 lung, in the assay on SR leukemia, in the assay on M14 melanoma and with OVCAR-4 ovarian was greater than 100 µM throughout. Also, the TGI with UO-31 renal, in the assay with OVCAR-5 ovarian, with EKVX NSCLC, in the assay with K-562 leukemia, in the assay with 786-0 renal and in the assay on SF-295 CNS was greater than 100 µM throughout. The TGI with A549 NSCLC, with KM12 colon, in the assay on UACC-257 melanoma, with BT-549 breast and in the assay with HOP-62 NSCLC was greater than 100 µM throughout.

On to `CCOC(=O)C(=CNc1ccc(F)c(F)c1)C(=O)OCC`, for which the TGI in the assay with SK-MEL-2 melanoma, in the assay on SW-620 colon, with SK-MEL-28 melanoma, in the assay with NCI-H460 lung, in the assay on RXF 393 renal and in the assay with SR leukemia was greater than 100 µM throughout. In addition, the TGI in the assay with M14 melanoma, in the assay with OVCAR-4 ovarian, in the assay on UO-31 renal, in the assay on OVCAR-5 ovarian, with A498 renal and in the assay on EKVX NSCLC was greater than 100 µM throughout. For the same molecule, the TGI with K-562 leukemia, with 786-0 renal, with A549 NSCLC, with KM12 colon, with UACC-257 melanoma and in the assay with HOP-62 NSCLC was greater than 100 µM in each case.

As to `O=c1c(Sc2c(SCSc3cnc4ccccc4c3Sc3c[nH]c4ccccc4c3=O)cnc3ccccc23)c[nH]c2ccccc12`, the TGI was greater than 100 µM in the assay on SW-620 colon; greater than 100 µM in the assay with SK-MEL-28 melanoma; greater than 100 µM in the assay with NCI-H460 lung; 25 µM in the assay with SR leukemia; greater than 100 µM with M14 melanoma; greater than 100 µM in the assay on OVCAR-4 ovarian. Further, the TGI with UO-31 renal, with OVCAR-5 ovarian, in the assay with EKVX NSCLC, with 786-0 renal, in the assay on SF-295 CNS and in the assay with KM12 colon was greater than 100 µM each time. The TGI with UACC-257 melanoma, in the assay with BT-549 breast and in the assay with HOP-62 NSCLC was greater than 100 µM throughout.

Take `O=[N+]([O-])c1cccc2nccc(NCCN3CCOCC3)c12`: the TGI is 42.6 µM in the assay with SK-MEL-2 melanoma; 33.7 µM in the assay with SW-620 colon; 46.1 µM in the assay on SK-MEL-28 melanoma; 32.5 µM in the assay with NCI-H460 lung; 31.9 µM in the assay with RXF 393 renal; greater than 31.4 µM in the assay with SR leukemia. Also, the TGI is 34 µM with M14 melanoma; 25.6 µM in the assay on OVCAR-4 ovarian; greater than 100 µM with UO-31 renal; 38.4 µM in the assay on OVCAR-5 ovarian; 29.3 µM with A498 renal; greater than 53.8 µM in the assay with EKVX NSCLC. The TGI was greater than 56.7 µM in the assay on K-562 leukemia; greater than 57.5 µM with 786-0 renal; 25.6 µM in the assay with SF-295 CNS; 43.3 µM in the assay with A549 NSCLC; 40 µM in the assay with KM12 colon; 29 µM with UACC-257 melanoma. The molecule also gave a TGI in the assay with HOP-62 NSCLC of 35.6 µM.
